Where only a bound is given, the exact number is not on record here.

T1 sequence (P49841 whole entry, species assumed, the tested form may be a part): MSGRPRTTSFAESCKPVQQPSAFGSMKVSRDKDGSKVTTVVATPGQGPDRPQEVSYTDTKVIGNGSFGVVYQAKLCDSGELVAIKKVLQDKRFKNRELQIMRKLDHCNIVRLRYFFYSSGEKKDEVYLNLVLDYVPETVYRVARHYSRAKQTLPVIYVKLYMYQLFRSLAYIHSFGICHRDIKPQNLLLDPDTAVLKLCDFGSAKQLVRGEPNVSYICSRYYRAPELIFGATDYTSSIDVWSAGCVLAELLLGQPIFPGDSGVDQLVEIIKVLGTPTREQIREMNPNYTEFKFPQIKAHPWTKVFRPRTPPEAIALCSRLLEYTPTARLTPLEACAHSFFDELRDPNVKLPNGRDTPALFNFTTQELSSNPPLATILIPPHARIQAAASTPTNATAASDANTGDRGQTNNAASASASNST

This test addresses T1, GSK-3β (AA 1-420) (Homo sapiens, UniProt P49841).
T1 construct: GSK-3β (AA 1-420)
The test is described as follows: GSK-3 Inhibition Assay (standard coupled enzyme system). The class given is biochemical. To be noted: 20 nM GSK-3β, 20 μM ATP, 300 μM peptide, 30° C. On the procedure: Compounds of the present invention were screened for their ability to inhibit GSK-3β (AA 1-420) activity using a standard coupled enzyme system (Fox et al., Protein Sci. 1998, 7, 2249). Reactions were carried out in a solution containing 100 mM HEPES (pH 7.5), 10 mM MgCl2, 25 mM NaCl, 300 μM NADH, 1 mM DTT and 1.5% DMSO. Final substrate concentrations in the assay were 20 μM ATP (Sigma Chemicals, St Louis, Mo.) and 300 μM peptide (American Peptide, Sunnyvale, Calif.). Reactions were carried out at 30° C. and 20 nM GSK-3β. Final concentrations of the components of the coupled enzyme system were 2.5 mM phosphoenolpyruvate, 300 μM NADH, 30 μg/ml pyruvate kinase and 10 μg/ml lactate dehydrogenase.
An assay stock buffer solution was prepared containing all of the reagents listed above with the exception of ATP and the test compound of the present invention. The assay stock buffer solution (175 μl) was incubated in a 96 well plate with 5 μl of the test compound of the present invention at final concentrations spanning 0.002 μM to 30 μM at 30° C. for 10 min. Typically, a 12-point titration was conducted by preparing serial dilutions (from 10 mM compound stocks) with DMSO of the test compounds of the present invention in daughter plates. The reaction was initiated by the addition of 20 μl of ATP (final concentration 20 μM). Rates of reaction were obtained using a Molecular Devices Spectramax plate reader (Sunnyvale, Calif.) over 10 min at 30° C. The Ki values were determined from the rate data as a function of inhibitor concentration.
In turn, `Fc1ccc2[nH]nc(Nc3cc(N4CCC4)nc(C4CCCCC4)n3)c2c1` [Compound I-3] came in with a Ki of 50 to 100 nM.
`Fc1cnc2[nH]nc(Nc3cc(N4CCC4)nc(C4CCCCC4)n3)c2c1` [Compound I-1, N-(6-(azetidin-1-yl)-2-cyclohexylpyrimidin-4-yl)-5-fluoro-1H-pyrazolo[3,4-b]pyridin-3-amine] gave an inhibition constant Ki of less than 50 nM.
For `Cc1cc(Nc2cc(N3CCC3)nc(C3CCCCC3)n2)n[nH]1` [Compound I-2], the inhibitory constant (Ki) is less than 50 nM.

(Values after patent publication US8426425B2, “Aminopyrimidines useful as inhibitors of protein kinases” (Vertex Pharmaceuticals Incorporated, priority 2006, dated 2013).)
